Data on two substances can be found in patent US7820624B2, “Peptide ligands” (ICH Productions Limited, priority 2003, dated 2010).

The test system of assay [1] is human monocyte-derived immature dendritic cells. Description: LID (lipid-peptide-DNA) transfection of immature dendritic cells, EGFP by FACS and 7AAD cell death. It is filed as cell-based. Particulars: for Transfection efficiency, % positive cells: day 4 cells; for Transfection efficiency (percentage cells positive for EGFP) relative to peptide 6: day 6 cells, LID vector. As to the method:
Lipopolyplex (LID) transfection complexes comprising lipid (L), peptide (in the form of a peptide derivative as described above) (I) and DNA (D) were prepared. The lipid component was Lipofectin or Lipofectamine 2000 (Invitrogen Ltd, Paisley, UK), the peptide component was a synthesized peptide A to F, 6 or 6J derivative, as described in Table 7 above, and the DNA was the plasmid pEGFP-N1 (Clontech, BD Biosciences, Palo Alto, Calif.)
In the transfection complex, peptide component to DNA charge ratios (+/−) were used at 1.5:1, 3:1 and 7:1. The lipid
component (Lipofectin or Lipofectamine 2000) was maintained at a constant proportion, by weight, relative to DNA of 0.75:1. Prior to making transfection complexes, in method A the lipid component was diluted to a concentration of 15 μg per ml, the peptide was prepared at 0.1 mg/ml and the DNA (plasmid pEGFP-N1, BD Biosciences, Cowley, UK, prepared using EndoFree plasmid kit, Qiagen Ltd, Crawley, UK) was at 10 μg per ml. All dilutions were performed with OptiMEM reduced serum tissue culture medium (Life Technologies Ltd, Paisley, UK). In method B prior to making transfection complexes the lipid component was diluted to a concentration of 30 μg per ml, the peptide was prepared at 0.1 mg/ml and the DNA (plasmid pEGFP-N1, BD Biosciences, Cowley, UK, prepared using EndoFree plasmid kit, Qiagen Ltd, Crawley, UK) was at […]. All dilutions were performed in serum-free RPMI.
Transfection complexes were made by mixing the components in the order 1) lipid (50 μl) then 2) peptide (70 μl) and finally 3) DNA (50 μl), then diluting with OptiMEM or serum free RPMI, as appropriate, to a concentration relative to the DNA component of 2 μg DNA per […] (OptiMEM) or 500 μl (RPMI).
Immature day 6 dendritic cells, obtained as described in Example 1(v) above, were plated into a 48 well plate at 5×10^4 cells per well in complete media and allowed to settle for 3 hours at 37° C. 300 μl or 500 μl (as appropriate) of the transfection complex obtained as described above was added to each well. The transfection complex was applied to cells within 5 minutes of preparation. Transfection incubations were performed at 37° C. for 4 hours, after which the medium was replaced with complete medium with cytokines for 24 hours. Cells were harvested by scraping, spun down and resuspended in 300 μl PBS for FACS analysis to determine the percentage of cells positive for the reporter gene EGFP (Enhanced Green Fluorescent Protein). Each transfection was performed in triplicate wells.
For transfection of monocytes, peripheral blood monocytes were prepared using Lymphoprep centrifugation and CD14 bead selection as described in the method for preparation of monocyte derived dendritic cells in Example 1(v) above. These cells were then transfected as described as described for dendritic cells except that transfection of the monocytes (and also of day 3 or day 4 immature dendritic cells) was carried out in solution.
Background: Flow cytometry measures light scatter and fluorescence of single cells or particles in a stream.

The test system is the same in assay [2]. Description: Whole cell flow cytometry (FACS) of phage clone binding. Particulars: day 4 cells, several donors; versus phage clone with no insert. How it is done:
5×10^4 Dendritic cells and 2×10^11 of an individual purified phage clone were each blocked at 4° C. for 30 mins in 1 ml MBSA (2% Marvel, 5% BSA in PBS), with mixing on a turntable. The dendritic cells were spun down at 2000 rpm, a gentle centrifugation to pellet cells without lysing them, for 5 min at 4° C., and the pellet resuspended in the blocked phage solution. The mixture was held on ice for 30 min to allow the phage to bind, before spinning down the cells, removing the supernatant and washing the cells with 1 ml 1% BSA, 0.05% Tween20-PBS. The cells were spun again, the supernatant removed, and the cells fixed in 1 ml 1% paraformaldehyde for 30 min on ice. […] The cells were incubated with the antibody on ice for 30 min before spinning down, washing twice in 0.05% Tween20, 1% BSA PBS, resuspending in […] and measuring the percentage cells positive for FITC by FACS analysis.
Alternatively, 5×10^4 dendritic cells were mixed with 2×10^11 of individual phage clones as described for panning of the phage library. The mixture of phage and DC suspensions was kept on ice for 30 min before cells were centrifuged to remove the supernatant and washed with 1 ml 1% BSA, 0.05% Tween 20-PBS. The cells were again pelleted by centrifugation, then fixed for flow cytometry analysis by resuspending in 1 ml of 1% paraformaldehyde for 30 min on ice. […] The cells were incubated with the antibody on ice for 30 min then pelleted by centrifugation, washed twice in 0.05% Tween 20, 1% BSA PBS and resuspended in 200 μl PBS. The percentage of FITC-positive cells was determined by flow cytometry using a Epics XL flow cytometer (Beckman Coulter, High Wycombe, UK.).

Assay [3] has as its system mouse dendritic cells. Briefly: Titration of phage clone binding to mouse dendritic cells. Conditions: 2×10^11 phage. How it is done:
(§1) The dendritic cells were spun down at 2000 rpm, for 5 min at 4° C., and resuspended in the phage solution, allowing the phage to bind for 1 hour on ice with occasional mixing. The cells were then washed in PBS-Tween 20 (0.05%) three times before eluting phage with 166 μl TBS pH5.5. for 10 min on ice. The eluate was neutralised with […] Tris-HCl pH 8, the cells were spun down, and the supernatant removed to be stored as eluate. The cell pellet was resuspended in 200 μl of cell lysis buffer (30 mM Tris-HCl, 1 mM EDTA pH 8.0) for 1 hour on ice, with shaking. The cell debris was removed by spinning at 5000 rpm for 5 min and the supernatant recovered. The phage in the eluate and the cell lysate were titred by measuring plaque forming units (pfu) in E. coli ER2738 as described in the NEB C7C technical bulletin.
(§2) The titration of phage clone binding was carried out using human and mouse dendritic cells, with binding to plastic as a control. The human cells were obtained from donors as stated below.

Assay [4] can be described thus: Titration of phage clone binding to blocked plastic (control). As to the method:
as §1, §2

Setting [5] is: lipofectin, lipid:DNA 0.75:1, peptide:DNA 7:1 (FIG. 5a).

Entries after “also recorded” stand apart in the source; their conditions may differ.

As to “SHVKLNS (Synthetic peptide binding to dendritic cells)”, the “Transfection efficiency, % positive cells” value in assay [1] (setting [5]) is 17%; in assay [1] (no lipid), “less than 1%”. Further, the “Transfection efficiency (percentage cells positive for EGFP) relative to peptide 6” value in assay [1] is “approximately one and a half times that of the positive control, peptide 6”. Also, in assay [2], the “Percentage of cells positive for bound phage (FITC) by FACS” value is listed as “binding to a higher percentage of cells than a phage clone bearing no insert; also recorded: bind to dendritic cells in highest amounts; also recorded: binding to dendritic cells in highest amounts”. Moreover, in assay [3], the “Phage titre (pfu), mouse DCs” value was determined as 2120 pfu ×10^3. The “Phage titre (pfu), plastic” value in assay [4] is given as 720 pfu ×10^3.
In the case of “APSNSTA (Synthetic peptide binding to dendritic cells)”, in assay [1] (setting [5]), the “Transfection efficiency, % positive cells” value was found to be 11%. The “Transfection efficiency (percentage cells positive for EGFP) relative to peptide 6” value in assay [1] is given as “equal to those of peptide 6”. Further, in assay [2], the “Percentage of cells positive for bound phage (FITC) by FACS” value is “binding to a higher percentage of cells than a phage clone bearing no insert; also recorded: bind to dendritic cells in highest amounts; also recorded: binding to dendritic cells in highest amounts”. Further, the “Phage titre (pfu), mouse DCs” value in assay [3] is listed as 480 pfu ×10^3. The “Phage titre (pfu), plastic” value in assay [4] was 480 pfu ×10^3.
